PubChem BioAssay (NCI)
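GI50 is the concentration that inhibits growth by half. At the TGI there is no net growth.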

Columns and labels:
Test in all cases: growth of human tumour cells (NCI), 384-well format
[1] = tested on: OVCAR-3 ovarian
[2] = tested on: BT-549 breast
[3] = tested on: SF-268 CNS
[4] = tested on: KM12 colon
[5] = tested on: OVCAR-4 ovarian
[6] = tested on: HL-60(TB) leukemia
[7] = tested on: MDA-MB-468 breast
[8] = tested on: MCF7 breast
[9] = tested on: SW-620 colon
[10] = tested on: UACC-257 melanoma
[11] = tested on: SK-OV-3 ovarian
[12] = tested on: HCT-15 colon
[13] = tested on: HCT-116 colon
[14] = tested on: PC-3 prostate
[15] = tested on: OVCAR-5 ovarian
[16] = tested on: OVCAR-8 ovarian
[17] = tested on: UO-31 renal
[18] = tested on: NCI-H522 lung
[19] = tested on: MDA-MB-231 breast
[20] = tested on: SK-MEL-28 melanoma
[21] = tested on: SN12C renal
[22] = tested on: SNB-75 CNS
[23] = tested on: HOP-92 NSCLC
[24] = tested on: ACHN renal
[25] = tested on: MALME-3M melanoma
[26] = tested on: TK-10 renal
[27] = tested on: SK-MEL-5 melanoma
[28] = tested on: LOX IMVI melanoma
[29] = tested on: A549 NSCLC

SMILES: COc1cc(N2CCC(N3CCN(C)CC3)CC2)ccc1Nc1ncc(Cl)c(Nc2ccccc2P(C)(C)=O)n1
- GI50 [1]: 2.22 µM
- TGI [1]: > 28.5 µM
- GI50 [2]: 2.28 µM
- TGI [2]: 5.08 µM
- GI50 [3]: 2.38 µM
- TGI [3]: > 25.7 µM
- GI50 [4]: 3.74 µM
- TGI [4]: > 100 µM
- GI50 [5]: 2.41 µM
- TGI [5]: 8.64 µM
- GI50 [6]: 3.35 µM
- TGI [6]: > 35.6 µM
- GI50 [7]: 2.01 µM
- TGI [7]: 6.18 µM
- GI50 [8]: 2.07 µM
- TGI [8]: > 100 µM
- GI50 [9]: 4.95 µM
- TGI [9]: > 100 µM
- GI50 [10]: > 100 µM
- TGI [10]: > 100 µM
- GI50 [11]: 2.45 µM
- TGI [11]: 5.89 µM
- GI50 [12]: 5.29 µM
- TGI [12]: > 100 µM
- GI50 [13]: 2.82 µM
- TGI [13]: > 77 µM
- GI50 [14]: 5.55 µM
- TGI [14]: > 100 µM
- GI50 [15]: 2.39 µM
- TGI [15]: > 46.9 µM
- GI50 [16]: 6.55 µM
- TGI [16]: > 100 µM
- GI50 [17]: 4.2 µM
- TGI [17]: > 62 µM
- GI50 [18]: 1.16 µM
- TGI [18]: 4.17 µM
- GI50 [19]: 2.03 µM
- TGI [19]: 6.47 µM
- GI50 [20]: > 100 µM
- TGI [20]: > 100 µM
- GI50 [21]: 2.3 µM
- TGI [21]: 11.1 µM
- GI50 [22]: 2.75 µM
- TGI [22]: 6.73 µM
- GI50 [23]: 1.17 µM
- TGI [23]: 3 µM
- GI50 [24]: 3.21 µM
- TGI [24]: > 43.9 µM
- GI50 [25]: 3.09 µM
- TGI [25]: > 66.9 µM
- GI50 [26]: 3.92 µM
- TGI [26]: > 100 µM
- GI50 [27]: 4.72 µM
- TGI [27]: > 100 µM
- GI50 [28]: 3.07 µM
- TGI [28]: 17.8 µM
- GI50 [29]: 2.1 µM
